Reference: patent US20140228682A1, “IMAGING PROBES, IMAGING SYSTEMS, AND METHODS OF IMAGING” (priority 2013, published 2014)

What was measured:
cartilage [1] = assay: small animal PET imaging of cartilage / osteoarthritis joints in mice; assay type: in vivo
Procedure: The mice were injected with ^89Zirconium oxalate through tail vein and then imaged by small animal PET.
(§1) The mice were injected with tracer through tail vein and then imaged at 5 days post-injection by small animal PET (left two columns of images) and optical imaging instrument (in vivo and ex vivo) (right two columns images).

cartilage [2] = assay: optical (Cerenkov) imaging of joints in mice, in vivo and ex vivo; details: FIG. 3, tail vein injection, 5 days post-injection, optical imaging instrument (in vivo and ex vivo)
Procedure: as §1

[3] = FIG. 3, tail vein injection, 5 days post-injection

## ^89Zr oxalate
Cartilage [1]; FIG. 2, tail vein injection
  signal in OA joints: low signal
  signal in sham and untreated joints: high signal
Cartilage [1]; [3]
  signal in OA joints: low signal
  signal in sham and untreated joints: high signal
Cartilage [2]
  signal in OA joints: low signal
  signal in sham and untreated joints: high signal
